Laboratory results: patent EP4692094A1 (Beijing Konruns Pharmaceutical Co., Ltd., priority 2023, dated 2024)

Assays:
[1] = Assay for plasma protein binding rate (equilibrium dialysis), mouse plasma; format: in vitro ADME; details: dialysis 6 h at 37 °C, read-out: Mouse (Fu%)
Description: (§1) 1.1 Preparation of compounds: The compounds prepared in the examples were each dissolved in dimethylsulfoxide to give solutions at a concentration of 10 mmol/L. • 1) The example compounds were each diluted from 10 mmol/L stock solution to 0.2 mmol/L, i.e., 1 µL of the compound was added to 49 µL of DMSO; • 2) 3 µL of 0.2 mmol/L test compounds were added to 597 µL of blood plasma, and the mixtures were vortexed at 1000 rpm for 2 min; • 3) 50 µL of the plasma containing the drug in 2) was taken, 50 µL of PBS was added, and 300 µL of methanol internal standard* was added to serve as a sample T0; • 4) 120 µL of the plasma containing the drug in 2) was taken and added to one side of an HTD device membrane, and 120 µL of PBS was added to the other side of the membrane; a breathable film was covered, and the plasma and the residual sample in 2) were balanced at 37 °C (100 rpm and 5% CO2) for 6 h; • 5) 50 µL of the dialyzed plasma side sample was taken, 50 µL of PBS was added, and 300 µL of methanol internal standard* was added to serve as a sample P; • 6) 50 µL of the dialyzed PBS side sample was taken, 50 µL of blank plasma was added, and 300 µL of methanol internal standard* was added to serve as a sample B; • 7) 50 µL of the plasma containing the drug in 2) was taken, 50 µL of PBS was added, and 300 µL of methanol internal standard* was added to serve as a sample T6; • 8) All samples were vortexed, mixed homogeneously, and then centrifuged at 3220 g for 40 min at 4 °C; • 9) 100 µL of the supernatant and 100 µL of purified water were mixed homogenously for liquid chromatography-mass spectrometry.
(§2) An internal standard method was used, and the plasma protein binding rate, recovery rate, and residual percentage were calculated by using Excel according to the ratio of the peak area of the sample to the peak area of the internal standard. Free rate(%) = (RatioB)/(RatioP) × 100% [formula] Binding rate(%) = 100%−Free rate% [formula] Recovery rate(%) = (RatioB + RatioP)/(RatioT0) × 100% [formula] Remaining percentage(%) = (RatioT6)/(RatioT0) × 100% [formula]
(§3) RatioB: a ratio of the peak area of the test substance on the PBS side to the peak area of the internal standard; RatioP: a ratio of the peak area of the test substance on the plasma side to the peak area of the internal standard; RatioT6: a ratio of the peak area of the sample after incubation with the test substance for 6 h to the peak area of the internal standard; RatioT0: a ratio of the peak area of the sample after incubation with the test substance for 0 h to the peak area of the internal standard. Table 8. Plasma protein binding rate (Fu%) data for various species of example compounds

[2] = Assay for plasma protein binding rate (equilibrium dialysis), dog plasma; format: in vitro ADME; details: dialysis 6 h at 37 °C, read-out: Dog (Fu%)
Description: as §1, §2, §3

[3] = target: T1, KAT8 (Homo sapiens, UniProt Q9H7Z6); experiment: Enzymatic activity assay for KAT8 acetyltransferase (TR-FRET); format: biochemical; details: KAT8 10 nM, AcCOA 2 µM
T1 construct: purchased active motife (Active Motif) 81225
T1 sequence (Q9H7Z6 1-458): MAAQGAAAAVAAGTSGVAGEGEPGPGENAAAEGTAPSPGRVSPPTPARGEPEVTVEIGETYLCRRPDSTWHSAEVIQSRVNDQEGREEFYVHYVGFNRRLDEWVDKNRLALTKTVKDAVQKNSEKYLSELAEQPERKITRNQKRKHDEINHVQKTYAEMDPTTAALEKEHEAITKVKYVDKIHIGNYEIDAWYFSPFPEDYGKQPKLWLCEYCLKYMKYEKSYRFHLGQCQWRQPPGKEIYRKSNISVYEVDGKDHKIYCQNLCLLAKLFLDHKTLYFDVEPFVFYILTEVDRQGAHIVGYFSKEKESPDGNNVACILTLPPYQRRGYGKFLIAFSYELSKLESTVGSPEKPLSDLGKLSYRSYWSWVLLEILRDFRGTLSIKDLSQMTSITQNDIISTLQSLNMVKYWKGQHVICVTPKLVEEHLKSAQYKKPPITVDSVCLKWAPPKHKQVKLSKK
Description: The acetylation effects of KAT6B on histone substrate H3, as well as KAT5, KAT7, and KAT8 on histone substrate H4, were determined using the TR-FRET (time-resolved fluorescence resonance energy transfer) method. The determination was performed according to experimental procedures similar to those in "Pharmacological Experiment I": 1.2 Preparation of compounds: The compounds prepared in the examples were each dissolved in dimethylsulfoxide to give solutions at a concentration of 10 mmol/L. • 1) The compounds in the examples were each diluted from 10 mmol/L stock solution to 0.2 mmol/L, i.e., 1 µL of the compound was added to 49 µL of DMSO, and 3-fold dilution was performed to give 10 concentrations. • 2) 50 nL of the test compounds were transferred to 384 reaction plates using Echo, two replicates for each compound, and the plates were centrifuged at a rotation speed of 1000 rpm for 1 min, the final concentration of dimethylsulfoxide (DMSO) being 0.5%.
For KAT8: • 3) 2.5 µL of the KAT8 enzyme solution at a final concentration of 10 nM was added to the 384 reaction plates in step 2), and the plates were centrifuged at 1000 rpm for 1 min and incubated at 25 °C for 10 min. • 4) 2.5 µL of […] at a final concentration of 300 nM and an AcCOA (acetyl-CoA) reaction solution at a final concentration of 2 µM were added to the 384 reaction plates in step 3), and the plates were centrifuged at a rotation speed of 1000 rpm for 1 min and incubated at 25 °C for 90 min. • 5) 5 µL of Eu-Ab& Ulight-SA detection solution was separately added to the 384 reaction plates in step 4) of the 4 groups described above, and the plates were centrifuged at 1000 rpm for 1 min and incubated at 25 °C for 60 min. • 6) The HTRF […] signals were read using a BMG high-throughput drug-screening multi-mode microplate reader.
The acetylation levels of the histones in the groups were analyzed by the GraphPad Prism 8 software. […]

Row | Structure (SMILES) | fraction unbound at 6 h, 1 µM [1] | fraction unbound at 6 h, 1 µM [2] | IC50 [3] [nM]
1 | COc1cc2c(cc1S(=O)(=O)Nc1noc3cc(Cn4cccn4)nc(OC)c13)CCCO2 [Example 76, N-(6-((1H-Pyrazol-1-yl)methyl)-4-methoxyisoxazolo[4,5-c]pyridin-3-yl)-7-methoxy-3,4-dihydro-1H-benzopyran-6-sulfonamide] | 0.0072 | 0.0065 | 
2 | COc1ccc2c(c1S(=O)(=O)Nc1noc3cc(Cn4cccn4)nc(OC)c13)OCC2 [Example 9, N-(6-((1H-Pyrazol-1-yl)methyl)-4-methoxyisoxazolo[4,5-c]pyridin-3-yl)-6-methoxy-2,3-dihydrobenzofuran-7-sulfonamide] | 0.0478 | 0.025 | 
3 | COc1cc2c(cc1S(=O)(=O)Nc1noc3cc(Cn4cccn4)nc(OC)c13)OCC2 [Example 59, N-(6-((1H-Pyrazol-1-yl)methyl)-4-methoxyisoxazolo[4,5-c]pyridin-3-yl)-5-methoxy-2,3-dihydrobenzofuran-6-sulfonamide] | 0.05 | 0.0143 | 327
4 | COc1ccc2ccoc2c1S(=O)(=O)Nc1noc2cc(Cn3cccn3)nc(OC)c12 [Example 10, N-(6-((1H-Pyrazol-1-yl)methyl)-4-methoxyisoxazolo[4,5-c]pyridin-3-yl)-6-methoxybenzofuran-7-sulfonamide] | 0.0512 | 0.0145 | 79.4
5 | COc1cc2c(cc1S(=O)(=O)Nc1noc3cc(Cn4cccn4)nc(OC)c13)CCCC2 [Example 2, N-(6-((1H-Pyrazol-1-yl)methyl)-4-methoxyisoxazolo[4,5-c]pyridin-3-yl)-3-methoxy-5,6,7,8-tetrahydronaphthalene-2-sulfonamide] | 0.0065 | 0.0013 | 118
